According to patent publication US8198099B2, “Mechanism to signal receptor-ligand interactions with luminescent quantum dots” (The University of Miami, priority 2006, dated 2012):

Tests used:
[1] = Stern-Volmer quenching of quantum dot luminescence by bipyridinium quenchers; format: binding; conditions: for Stern-Volmer constant: linear (static) region of plot, quantum dots 1.5 μM, sodium phosphate buffer, pH=7.8, 20° C., λEx=350 nm
Method: (§1) The emission spectra (λEx=350 nm) of the same solution were recorded before (b) and after the consecutive addition of 1 (c, 4.1 μM) and 3 (d, 21 μM). Also shown is a Stern-Volmer plot (e) of hydrophilic CdSe—ZnS core-shell quantum dots (1.5 μM, sodium phosphate buffer, pH=7.8, 20° C., λEx=350 nm) upon addition of increasing amounts of 1.
(§2) Also shown is a Stern-Volmer plot (d) of hydrophilic CdSe—ZnS core-shell quantum dots (1.5 μM, sodium phosphate buffer, pH=7.8, 20° C., λEx=350 nm) after addition of increasing amounts of 2.
Indeed, bipyridinium dications are known to accept electrons from excited CdSe and CdSe—ZnS core-shell quantum dots, quenching their luminescence.36-37 The corresponding Stern-Volmer plot (e in FIG. 2) deviated from linearity at quencher concentrations greater than about 2.5 μM. […] These observations are consistent with the adsorbance of the dicationic quencher on the surface of the hydrophilic quantum dots as a result of electrostatic interactions with their anionic carboxylate groups.
In order to test the potential of our operating principles to signal receptor-ligand interactions, we designed a compound (2 in FIG. 3) integrating a bipyridinium quencher and a biotin ligand within the same molecular skeleton and prepared this molecule in two synthetic steps (see FIG. 6). Once again, the luminescence of the hydrophilic quantum dots decreases upon exposure to 2 (a and b in FIG. 7) (the addition of either 1 or 2 to a solution of the quantum dots has no influence on the visible region of the absorption spectrum). […]
(§3) Methods. […] Infrared absorption spectra were recorded with a Perkin-Elmer Spectrum One Fourier transform spectrometer. Visible absorption spectra were recorded with a Varian Cary 100 Bio spectrometer, using quartz cells with a path length of 0.5 cm. Emission spectra were recorded with a Varian Cary Eclipse spectrometer in aerated solutions. Fast atom bombardment mass spectra (FABMS) were recorded with a VG Mass Lab Trio-2 in a 3-nitrobenzyl alcohol matrix. […]

[2] = Luminescence restoration on adding excess macrocyclic receptor 3 to quantum dots and quencher 1; format: binding; conditions: quantum dots 1.5 μM, 1 4.1 μM, 3 21 μM, pH=7.8, 20° C.
Method: as §1
The change imposed on the luminescence of the hydrophilic quantum dots by the quencher 1 can be reversed with the addition of an excess of cucurbituril (3 in FIG. 3). Indeed, this particular macrocyclic receptor is known to bind bipyridinium dications with high association constants in aqueous solutions.^36-39 Consistently, the emission spectrum (d in FIG. 2) recorded in the presence of an excess of 3 relative to 1 closely resembles the one recorded before the addition of 1 (b). The infrared spectra recorded before (b in FIG. 4) and after (c in FIG. 4) treatment of the CdSe—ZnS core-shell quantum dots with mercaptoacetic acid and potassium hydroxide show the disappearance of the [C—H] stretching vibrations at 2800 cm^−1 to […] (a) for hydrophobic ligands and the appearance of the [C═O] stretching vibrations at 1300 cm^−1 to 1700 cm^−1 (d) for the hydrophilic ones. […] In principle, the very same mechanism can be adapted to signal receptor-ligand interactions with changes in luminescence. […]

bovine serum albumin = molecular target: T1, bovine serum albumin (Bos taurus, UniProt P02769); experiment: Specificity control: bovine serum albumin added to quantum dots and 2; format: binding; conditions: quantum dots 1.5 μM, 2 4.1 μM, bovine serum albumin 7.4 μM, pH=7.8, 20° C.
T1 construct: purchased
Text: (§4) The addition of increasing amounts of streptavidin to a mixture of the hydrophilic quantum dots and 2 leads to a luminescence enhancement (c in FIG. 7). The addition of 3, streptavidin or bovine serum albumin to a solution of the hydrophilic quantum dots has no influence on the emission spectrum in the absence of bipyridinium quenchers. Instead, the addition of bovine serum albumin has no influence of the emission spectrum under otherwise identical conditions (FIG. 8). […] The luminescence increases only by 30% after the association of 2 and streptavidin, while it grows by 80% after the interaction of 1 and 3. […] Presumably, an adjustment in the length of the aliphatic spacer connecting the quencher to the ligand in 2 can be invoked to improve the luminescence enhancement upon streptavidin binding.
Methods. […] Infrared absorption spectra were recorded with a Perkin-Elmer Spectrum One Fourier transform spectrometer. Visible absorption spectra were recorded with a Varian Cary 100 Bio spectrometer, using quartz cells with a path length of 0.5 cm. Emission spectra were recorded with a Varian Cary Eclipse spectrometer in aerated solutions. Fast atom bombardment mass spectra (FABMS) were recorded with a VG Mass Lab Trio-2 in a 3-nitrobenzyl alcohol matrix. Nuclear magnetic resonance (NMR) spectra were recorded with Bruker Avance 400 and 500 spectrometers.

streptavidin = molecular target: T2, streptavidin (Streptomyces avidinii, UniProt P22629); experiment: Luminescence enhancement on adding streptavidin to quantum dots and quencher-biotin 2; format: binding; conditions: quantum dots 1.5 μM, 2 4.1 μM, streptavidin 21 μM (large excess), pH=7.8, 20° C.
T2 construct: purchased
Method: as §2, §4
as §3, with “solutions.” for “solutions. Fast atom bombardment mass spectra (FABMS) were recorded with a VG Mass Lab Trio-2 in a 3-nitrobenzyl alcohol matrix.”

[3] = Control: receptor added to quantum dots without bipyridinium quenchers; conditions: in the absence of bipyridinium quenchers

T1 sequence (P02769 25-607): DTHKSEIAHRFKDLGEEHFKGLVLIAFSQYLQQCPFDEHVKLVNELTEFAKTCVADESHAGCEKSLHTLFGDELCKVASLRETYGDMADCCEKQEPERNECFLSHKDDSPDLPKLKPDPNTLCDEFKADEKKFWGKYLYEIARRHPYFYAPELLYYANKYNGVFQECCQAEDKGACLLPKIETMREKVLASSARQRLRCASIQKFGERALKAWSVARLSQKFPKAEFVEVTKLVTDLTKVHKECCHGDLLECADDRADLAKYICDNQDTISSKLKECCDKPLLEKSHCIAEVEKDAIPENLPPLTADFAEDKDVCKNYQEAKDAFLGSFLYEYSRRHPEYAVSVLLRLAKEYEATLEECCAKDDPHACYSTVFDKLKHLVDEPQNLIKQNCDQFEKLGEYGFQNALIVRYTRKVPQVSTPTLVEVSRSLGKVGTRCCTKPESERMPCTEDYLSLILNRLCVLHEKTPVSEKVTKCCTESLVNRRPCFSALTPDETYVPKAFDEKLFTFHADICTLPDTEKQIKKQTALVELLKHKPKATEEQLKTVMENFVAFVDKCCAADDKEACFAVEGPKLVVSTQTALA

Row | effect on the emission spectrum of the quantum dots [3] | Compound | Stern-Volmer constant [1] | also measured
1 | no influence | O=C1N2CN3C(=O)N4CN5C(=O)N6CN7C(=O)N8CN9C(=O)N%10CN%11C(=O)N%12CN1C1C2N2CN%13C(=O)N(CN%14C(=O)N(CN%15C(=O)N(CN%16C(=O)N(CN%17C(=O)N(CN1C2=O)C%12C%11%17)C%10C9%16)C8C7%15)C6C5%14)C4C3%13 (stereo not drawn) [compound 3, cucurbituril, reference compound] | – | –
2 | no influence | streptavidin: protein receptor that binds the biotin ligand of 2 | – | –

Continued, compound first:

Row | Compound | effect on the emission spectrum of the quantum dots [3] | Stern-Volmer constant [1] | also measured
3 | C[n+]1ccc(-c2cc[n+](C)cc2)cc1 [compound 1, methyl viologen, reference compound] | – | about 0.45 μM^−1 | luminescence increase after interaction with 3 [2]: 80%
4 | C[n+]1ccc(-c2cc[n+](CCCOCCCCCC3SCC4NC(=O)NC43)cc2)cc1.[I-].[I-] (stereo not drawn) [compound 2, 1-Methyl-1′-(3-(5-(2-Oxohexahydrothieno[3,4-d]imidazol-6-yl)-pentanoxy)-propyl)-4,4′-Bipyridinium Bisiodide] | – | about 0.22 μM^−1 | decrease in the Stern-Volmer constant relative to 1 ([1]; same conditions as the Stern-Volmer plots): about 0.23 μM^−1; effect of bovine serum albumin on the emission spectrum (bovine serum albumin): no influence; luminescence increase after association with streptavidin (streptavidin): 30%
5 | bovine serum albumin: control protein that does not bind biotin | no influence | – | –
